Source: US11485742B2, “2-azaspiro[3.4]octane derivatives as M4 agonists” (NOVARTIS AG, priority 2019, dated 2022)

What was measured:
[1] = molecular target: T1, human cloned CHRM4 receptor (Homo sapiens, UniProt P08173); assay: CHRM4 Ca++ Flux Assay (M4_CHO cells, agonist mode); format: cell-based; conditions: for M4 FDSS PA %: Percent Activity (PA); for EC50: geometric mean if tested more than once, read-out: M4 FDSS EC50
T1 construct: expressed in transfected cells; host or cells: CHO-K1 (M4_CHO)
T1 sequence (P08173 1-479): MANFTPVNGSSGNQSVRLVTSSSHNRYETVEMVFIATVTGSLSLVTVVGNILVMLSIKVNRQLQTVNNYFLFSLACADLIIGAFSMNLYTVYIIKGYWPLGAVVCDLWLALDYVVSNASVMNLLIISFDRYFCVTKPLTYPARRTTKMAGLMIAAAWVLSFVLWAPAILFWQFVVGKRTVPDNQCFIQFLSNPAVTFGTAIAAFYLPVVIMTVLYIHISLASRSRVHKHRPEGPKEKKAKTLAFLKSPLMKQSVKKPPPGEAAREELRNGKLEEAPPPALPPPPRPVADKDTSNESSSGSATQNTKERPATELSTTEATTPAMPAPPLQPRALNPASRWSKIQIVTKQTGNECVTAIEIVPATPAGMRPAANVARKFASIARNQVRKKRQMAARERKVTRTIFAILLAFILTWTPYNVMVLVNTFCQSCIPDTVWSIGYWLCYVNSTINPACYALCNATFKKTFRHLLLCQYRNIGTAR
Experimental: (§1) The above examples were characterized by measuring the intracellular mobilization of Ca^++ ions caused by signaling events mediated by the receptor. The Intra-cellular Calcium flux levels were captured by the highly sensitive Ca^++ indicator, Calcium Assay Kit (BD Biosciences; Catalog Number 640178. The fluorescent activity from all receptors were monitored by the fluorescent imager, FDSS 7000EX (Hamamatsu) over a span of 3 minutes. The change in Calcium flux was readily captured upon activation with the muscarinic orthosteric agonist, Carbachol.
(§2) CHO-K1 cells stably expressing the human cloned CHRM4 receptor (M4_CHO cells) were grown and maintained in a monolayer culture with F12/HAM (Life Technologies) supplemented with 10% Fetal Bovine Serum, 1X Pen-Strep, and 0.4 mg/mL Geneticin in a humidified atmosphere (5% CO2) at 37° C. The cultures were grown to 80-90% confluency in T150 flasks (Corning) and washed with 1×DPBS then lifted with 0.05% Trypsin (Life Technologies). The cells were harvested in growth media then spun (1K rpm, 3 minutes) and cryopreserved using Recovery Cell Culture Freezing Media (Gibco Technologies). Cells were stored in liquid nitrogen and thawed a day before the assay.
Prior to the day of the assay, stable M4_CHO cells were thawed and plated on 384 well black walled clear bottom TC treated plates (Greiner Cat #781091) at 12K cells/well using F12/HAM Media supplemented with 10% FBS (Life Technologies) and kept overnight in a humidified atmosphere (5% CO2) at 37° C. The next day, cells were loaded with 20 μL Ca^++ dye (BD Biosciences) using Loading Buffer (HBSS +Ca/+Mg, 20 mM HEPES, 2.5 mM Probenecid) and placed back in cell incubator for a minimum of 1 hour. After incubation, the dye was replaced with 45 μL Assay Buffer (HBSS −Ca/−Mg, 20 mM HEPES, 2.5 mM Probenecid) supplemented with 20 μM ATP (Sigma Aldrich) and kept at room temperature in the dark for 60 minutes before running on a cell imager. The FDSS 7000EX (Hamamatsu) was used to capture Ca^++ traces for a span of 3 minutes from cells treated with 11 point dose of compound in triplicate in order to generate dose response curves in agonist mode. All compounds were serially diluted in DMSO then prepared in Assay Buffer for Ca^++ flux studies. The dose response curves were generated from the average of triplicate wells obtained from each data point and used a non-linear regression of four parameter dose response algorithm. The Percent Activity (PA) was measured to EC100 of Carbachol.
(§3) If an Example was tested more than once in an assay, then the values below represent the geometric mean of the results from each independent experiment.

[2] = molecular target: T2, human cloned CHRM2 receptor (Homo sapiens, UniProt P08172); assay: CHRM2 Ca++ Flux Assay (M2_CHO cells, agonist mode); format: cell-based; conditions: M2 CHO cells; for EC50: agonist mode, geometric mean if tested more than once, read-out: M2 FDSS EC50; for M2 FDSS PA %: Percent Activity (PA) measured to EC100 of Carbachol
T2 construct: expressed in transfected cells; host or cells: CHO-K1 (M2_CHO)
T2 sequence (P08172 1-466): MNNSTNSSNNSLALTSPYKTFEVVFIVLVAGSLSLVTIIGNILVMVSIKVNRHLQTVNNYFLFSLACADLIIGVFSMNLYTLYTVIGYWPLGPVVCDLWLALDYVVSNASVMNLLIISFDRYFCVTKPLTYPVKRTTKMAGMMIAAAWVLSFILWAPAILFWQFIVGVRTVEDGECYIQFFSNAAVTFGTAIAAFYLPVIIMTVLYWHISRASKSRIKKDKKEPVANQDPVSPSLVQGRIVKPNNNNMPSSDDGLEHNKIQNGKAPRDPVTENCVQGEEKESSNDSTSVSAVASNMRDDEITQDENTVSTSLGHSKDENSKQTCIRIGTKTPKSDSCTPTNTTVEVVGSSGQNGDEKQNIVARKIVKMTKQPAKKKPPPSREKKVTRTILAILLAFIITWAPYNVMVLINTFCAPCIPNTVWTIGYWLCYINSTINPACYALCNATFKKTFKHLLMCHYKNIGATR
Experimental: as §1
as §2, with “cloned CHRM2” for “cloned CHRM4”, “receptor (M2_CHO” for “receptor (M4_CHO”, “Serum, 1×Pen-Strep,” for “Serum, 1X Pen-Strep,”, “1×DPBS and” for “1×DPBS then”, “were” for “were harvested in growth media”, “and frozen” for “and cryopreserved”
Prior to the day of the assay, stable M2 CHO cells were thawed and plated on Greiner 384 well TC treated plate at a density of 12K cells/well and kept overnight in a humidified atmosphere (5% CO2) at 37° C. The following day, the cells were loaded with Ca^++ dye (BD Biosciences) using Loading Buffer (HBSS +Ca/+Mg, 20 mM HEPES, 2.5 mM Probenecid) and placed back in cell incubator for a minimum of 1 hour and maximum of 2 hours. After incubation, the dye was replaced with Assay Buffer (HBSS −Ca/−Mg, 20 mM HEPES, 2.5 mM Probenecid) supplemented with 20 μM ATP (Sigma Aldrich) and kept at room temperature for 60 minutes prior before running on cell imager. The FDSS 7000EX (Hamamatsu) was used to acquire Ca^++ traces from cells in response to compound treatment and the data was used to generate dose response curves in agonist mode. All compounds were serially diluted in DMSO then prepared in Assay Buffer for Ca^−+ flux studies. The dose response curves were generated from the average of triplicate wells obtained from each data point and used a non-linear regression of four parameter dose response algorithm. The Percent Activity (PA) was measured to EC100 of Carbachol.
as §3

Row | Structure (SMILES) | M4 FDSS PA % [1] [%] | EC50 [1] [nM] | EC50 [2] [nM] | M2 FDSS PA % [2] [%]
1 | CC(C)(O)[C@H]1C[C@H](Oc2ccc(F)cc2C2CCN([C@@H]3COC4(C3)CN(c3nnco3)C4)CC2)C1 (single isomer, unassigned) [Example 2V, 2-((1S,3r)-3-(2-(1-((S)-2-(1,3,4-oxadiazol-2-yl)-5-oxa-2-azaspiro[3.4]octan-7-yl)piperidin-4-yl)-4-fluorophenoxy)cyclobutyl)propan-2-ol or 2-((1R,3s)-3-(2-(1-((S)-2-(1,3,4-oxadiazol-2-yl)-5-oxa-2-azaspiro[3.4]octan-7-yl)piperidin-4-yl)-4-fluorophenoxy)cyclobutyl)propan-2-ol] | 75 | 94 | 1080 | 28
2 | CC(C)(O)[C@H]1C[C@H](Oc2ccc(F)cc2C2CCN([C@@H]3COC4(C3)CN(c3nnco3)C4)CC2)C1 (single isomer, unassigned) [Example 2W, 2-((1S,3r)-3-(2-(1-((S)-2-(1,3,4-oxadiazol-2-yl)-5-oxa-2-azaspiro[3.4]octan-7-yl)piperidin-4-yl)-4-fluorophenoxy)cyclobutyl)propan-2-ol or 2-((1R,3s)-3-(2-(1-((S)-2-(1,3,4-oxadiazol-2-yl)-5-oxa-2-azaspiro[3.4]octan-7-yl)piperidin-4-yl)-4-fluorophenoxy)cyclobutyl)propan-2-ol] | 70 | 87 | 3080 | 29
3 | C[C@H](Oc1ccc(F)cc1C1CCN([C@@H]2COC3(C2)CN(c2nnco2)C3)CC1)C1CCOCC1 (single isomer, unassigned) [Example 2Y, (S)-7-(4-(5-fluoro-2-((S)-1-(tetrahydro-2H-pyran-4-yl)ethoxy)phenyl)piperidin-1-yl)-2-(1,3,4-oxadiazol-2-yl)-5-oxa-2-azaspiro[3.4]octane or (S)-7-(4-(5-fluoro-2-((R)-1-(tetrahydro-2H-pyran-4-yl)ethoxy)phenyl)piperidin-1-yl)-2-(1,3,4-oxadiazol-2-yl)-5-oxa-2-azaspiro[3.4]octane] | 76 | 554 | 3330 | 35
4 | c1ccc([C@@H]2CCOC2)c(C2CCN([C@@H]3COC4(C3)CN(c3nnco3)C4)CC2)c1 (single isomer, unassigned) [Example 3A, (S)-2-(1,3,4-oxadiazol-2-yl)-7-(4-(2-((S)-tetrahydrofuran-3-yl)phenyl)piperidin-1-yl)-5-oxa-2-azaspiro[3.4]octane or (S)-2-(1,3,4-oxadiazol-2-yl)-7-(4-(2-((R)-tetrahydrofuran-3-yl)phenyl)piperidin-1-yl)-5-oxa-2-azaspiro[3.4]octane] | 91 | 83 | 1570 | 35
5 | c1ccc([C@@H]2CCOC2)c(C2CCN([C@@H]3COC4(C3)CN(c3nnco3)C4)CC2)c1 (single isomer, unassigned) [Example 3B, (S)-2-(1,3,4-oxadiazol-2-yl)-7-(4-(2-((S)-tetrahydrofuran-3-yl)phenyl)piperidin-1-yl)-5-oxa-2-azaspiro[3.4]octane or (S)-2-(1,3,4-oxadiazol-2-yl)-7-(4-(2-((R)-tetrahydrofuran-3-yl)phenyl)piperidin-1-yl)-5-oxa-2-azaspiro[3.4]octane] | 86 | 69 | 1500 | 31
6 | Fc1ccc([C@H]2CCOC2)c(C2CCN([C@@H]3COC4(C3)CN(c3nnco3)C4)CC2)c1 (single isomer, unassigned) [Example 3E, (S)-7-(4-(5-fluoro-2-((R)-tetrahydrofuran-3-yl)phenyl)piperidin-1-yl)-2-(1,3,4-oxadiazol-2-yl)-5-oxa-2-azaspiro[3.4]octane or (S)-7-(4-(5-fluoro-2-((S)-tetrahydrofuran-3-yl)phenyl)piperidin-1-yl)-2-(1,3,4-oxadiazol-2-yl)-5-oxa-2-azaspiro[3.4]octane] | 86 | 28 | 404 | 60
7 | Fc1ccc([C@H]2CCOC2)c(C2CCN([C@@H]3COC4(C3)CN(c3nnco3)C4)CC2)c1 (single isomer, unassigned) [Example 3F, (S)-7-(4-(5-fluoro-2-((R)-tetrahydrofuran-3-yl)phenyl)piperidin-1-yl)-2-(1,3,4-oxadiazol-2-yl)-5-oxa-2-azaspiro[3.4]octane or (S)-7-(4-(5-fluoro-2-((S)-tetrahydrofuran-3-yl)phenyl)piperidin-1-yl)-2-(1,3,4-oxadiazol-2-yl)-5-oxa-2-azaspiro[3.4]octane] | 80 | 23 | 406 | 49
8 | O[C@H]1CC[C@@H](c2ccc(F)cc2C2CCN([C@@H]3COC4(C3)CN(c3nnco3)C4)CC2)CC1 (single isomer, unassigned) [Example 3H, (1R,4s)-4-(2-(1-((S)-2-(1,3,4-oxadiazol-2-yl)-5-oxa-2-azaspiro[3.4]octan-7-yl)piperidin-4-yl)-4-fluorophenyl)cyclohexan-1-ol or (1S,4r)-4-(2-(1-((S)-2-(1,3,4-oxadiazol-2-yl)-5-oxa-2-azaspiro[3.4]octan-7-yl)piperidin-4-yl)-4-fluorophenyl)cyclohexan-1-ol] | 83.2 | 10 | 2460 | 30
